Data as given in paper PMC5971065 (ACS infectious diseases, 2017).

Columns and labels:
[1] = system: A549, HEK-293, and J774A.1 cells; test: Mammalian cytotoxicity; details: positive control treatment
[2] = system: Mtb H37Rv; assay type: cell-based, Mycobacterium tuberculosis

Row | Substance | cytotoxicity [1] | H37Rv MICKAN [2] [µg/mL]
1 | Triton X-100 | most of the cells killed | 
2 | kanamycin A |  | 1.25
